Laboratory results as given in ChEMBL document CHEMBL5465560, “Selectivity Literature for EUbOPEN Chemogenomic Library” (2024).
Values belong to the molecule of their own block, whether it stands above or below them.

How the values were obtained:
[1] = target: T1, Serine/threonine-protein kinase Nek2 (Homo sapiens) (UniProt P51955); assay: Selectivity interaction (KinomeScan (DiscoverX)) EUB0000607a NEK2; details: at 10 µM
T1 sequence (whole entry): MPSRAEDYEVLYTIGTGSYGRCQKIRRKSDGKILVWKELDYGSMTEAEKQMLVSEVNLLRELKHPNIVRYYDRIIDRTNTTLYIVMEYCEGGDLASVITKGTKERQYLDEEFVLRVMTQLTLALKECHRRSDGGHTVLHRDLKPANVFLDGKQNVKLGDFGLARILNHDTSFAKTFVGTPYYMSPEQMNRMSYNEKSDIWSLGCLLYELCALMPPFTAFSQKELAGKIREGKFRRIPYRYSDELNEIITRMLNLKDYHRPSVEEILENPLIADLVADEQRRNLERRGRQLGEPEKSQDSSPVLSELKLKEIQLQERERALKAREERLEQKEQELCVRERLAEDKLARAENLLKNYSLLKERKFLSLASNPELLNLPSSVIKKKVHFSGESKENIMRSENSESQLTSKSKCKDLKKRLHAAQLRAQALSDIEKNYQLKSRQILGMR

[2] = target: T2, Serine/threonine-protein kinase D2 (Homo sapiens) (UniProt Q9BZL6); assay: Selectivity interaction (KinomeScan (DiscoverX)) EUB0000695a PRKD2; details: at 100 nM
T2 sequence (whole entry): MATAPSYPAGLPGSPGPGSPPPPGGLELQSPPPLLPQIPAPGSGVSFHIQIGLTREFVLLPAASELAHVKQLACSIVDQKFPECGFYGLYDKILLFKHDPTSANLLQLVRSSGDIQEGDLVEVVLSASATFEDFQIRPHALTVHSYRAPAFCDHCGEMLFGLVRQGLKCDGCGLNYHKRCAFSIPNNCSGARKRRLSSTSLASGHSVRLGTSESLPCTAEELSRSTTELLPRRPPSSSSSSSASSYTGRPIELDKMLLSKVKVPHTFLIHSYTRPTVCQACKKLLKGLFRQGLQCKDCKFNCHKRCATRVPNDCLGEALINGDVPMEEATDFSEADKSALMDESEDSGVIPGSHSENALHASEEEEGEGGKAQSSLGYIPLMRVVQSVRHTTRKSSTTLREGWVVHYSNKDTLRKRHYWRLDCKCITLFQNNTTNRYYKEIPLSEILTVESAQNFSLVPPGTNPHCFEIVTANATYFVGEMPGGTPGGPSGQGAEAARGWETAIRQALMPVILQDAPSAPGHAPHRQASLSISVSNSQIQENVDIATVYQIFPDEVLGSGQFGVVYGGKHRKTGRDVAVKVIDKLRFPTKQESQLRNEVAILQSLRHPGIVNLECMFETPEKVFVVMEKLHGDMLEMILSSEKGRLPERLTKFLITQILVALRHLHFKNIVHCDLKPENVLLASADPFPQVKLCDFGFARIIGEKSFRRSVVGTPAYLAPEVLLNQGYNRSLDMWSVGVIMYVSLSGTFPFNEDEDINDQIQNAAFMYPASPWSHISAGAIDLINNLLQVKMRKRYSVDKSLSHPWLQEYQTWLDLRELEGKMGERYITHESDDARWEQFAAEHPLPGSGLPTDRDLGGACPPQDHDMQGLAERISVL

[3] = target: Cyclin-dependent kinase 14 (Homo sapiens) (UniProt O94921); assay: Selectivity interaction (KinomeScan (DiscoverX)) EUB0000595a CDK14; details: at 10 µM
[4] = target: Bromodomain-containing protein 4 (Homo sapiens, UniProt O60885)
[5] = target: Eukaryotic translation initiation factor 2-alpha kinase 1 (Homo sapiens) (UniProt Q9BQI3); assay: Selectivity interaction (KinomeScan (DiscoverX)) EUB0001079a EIF2AK1; details: at 1 µM
[6] = tested on: Tyrosine-protein kinase ABL1 (Homo sapiens), P00519 [Q252H]; assay: (§1) Selectivity interaction (KinomeScan (DiscoverX)) EUB0000092b ABL1; details: at 10 µM
[7] = target: Tyrosine-protein kinase ABL1 (Homo sapiens, UniProt P00519); assay: as §1; details: at 10 µM
[8] = tested on: Tyrosine-protein kinase ABL1 (Homo sapiens), P00519 [F317L]; assay: as §1; details: at 10 µM
[9] = tested on: Tyrosine-protein kinase ABL1 (Homo sapiens), P00519 [H396P]; assay: as §1; details: at 10 µM
[10] = tested on: Tyrosine-protein kinase ABL1 (Homo sapiens), P00519 [T315I]; assay: as §1; details: at 10 µM
[11] = tested on: Tyrosine-protein kinase ABL1 (Homo sapiens), P00519 [M351T]; assay: as §1; details: at 10 µM
[12] = tested on: Tyrosine-protein kinase ABL1 (Homo sapiens), P00519 [F317I]; assay: as §1; details: at 10 µM
[13] = target: T3, Serine/threonine-protein kinase haspin (Homo sapiens) (UniProt Q8TF76); assay: Selectivity interaction (KinomeScan (DiscoverX)) EUB0001619a GSG2; details: at 1 µM
T3 sequence (whole entry): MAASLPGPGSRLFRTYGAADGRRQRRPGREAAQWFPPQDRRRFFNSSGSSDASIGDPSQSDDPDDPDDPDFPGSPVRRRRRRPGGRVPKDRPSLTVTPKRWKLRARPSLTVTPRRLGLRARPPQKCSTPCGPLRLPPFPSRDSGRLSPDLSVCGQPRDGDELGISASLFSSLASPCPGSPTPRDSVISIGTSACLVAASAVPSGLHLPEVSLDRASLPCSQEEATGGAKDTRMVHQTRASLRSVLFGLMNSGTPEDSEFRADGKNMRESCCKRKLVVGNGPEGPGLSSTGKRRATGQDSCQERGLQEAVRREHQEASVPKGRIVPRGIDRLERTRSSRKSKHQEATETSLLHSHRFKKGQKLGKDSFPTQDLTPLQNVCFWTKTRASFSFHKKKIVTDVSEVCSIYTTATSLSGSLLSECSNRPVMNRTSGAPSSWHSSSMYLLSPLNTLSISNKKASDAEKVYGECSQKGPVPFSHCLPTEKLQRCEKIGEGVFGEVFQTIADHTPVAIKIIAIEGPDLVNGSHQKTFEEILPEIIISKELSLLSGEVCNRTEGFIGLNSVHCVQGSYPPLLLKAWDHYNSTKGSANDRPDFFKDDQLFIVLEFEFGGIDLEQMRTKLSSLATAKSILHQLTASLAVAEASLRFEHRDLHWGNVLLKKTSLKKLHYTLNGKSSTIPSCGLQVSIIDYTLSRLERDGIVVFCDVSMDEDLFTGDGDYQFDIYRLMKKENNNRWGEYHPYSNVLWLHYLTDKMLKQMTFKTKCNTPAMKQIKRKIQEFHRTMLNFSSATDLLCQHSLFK

[14] = target: Myosin light chain kinase, smooth muscle (Homo sapiens, UniProt Q15746); assay: Selectivity interaction (KinomeScan (DiscoverX)) EUB0001619a MYLK; details: at 1 µM
Chain of Myosin light chain kinase, smooth muscle (Q15746 whole entry): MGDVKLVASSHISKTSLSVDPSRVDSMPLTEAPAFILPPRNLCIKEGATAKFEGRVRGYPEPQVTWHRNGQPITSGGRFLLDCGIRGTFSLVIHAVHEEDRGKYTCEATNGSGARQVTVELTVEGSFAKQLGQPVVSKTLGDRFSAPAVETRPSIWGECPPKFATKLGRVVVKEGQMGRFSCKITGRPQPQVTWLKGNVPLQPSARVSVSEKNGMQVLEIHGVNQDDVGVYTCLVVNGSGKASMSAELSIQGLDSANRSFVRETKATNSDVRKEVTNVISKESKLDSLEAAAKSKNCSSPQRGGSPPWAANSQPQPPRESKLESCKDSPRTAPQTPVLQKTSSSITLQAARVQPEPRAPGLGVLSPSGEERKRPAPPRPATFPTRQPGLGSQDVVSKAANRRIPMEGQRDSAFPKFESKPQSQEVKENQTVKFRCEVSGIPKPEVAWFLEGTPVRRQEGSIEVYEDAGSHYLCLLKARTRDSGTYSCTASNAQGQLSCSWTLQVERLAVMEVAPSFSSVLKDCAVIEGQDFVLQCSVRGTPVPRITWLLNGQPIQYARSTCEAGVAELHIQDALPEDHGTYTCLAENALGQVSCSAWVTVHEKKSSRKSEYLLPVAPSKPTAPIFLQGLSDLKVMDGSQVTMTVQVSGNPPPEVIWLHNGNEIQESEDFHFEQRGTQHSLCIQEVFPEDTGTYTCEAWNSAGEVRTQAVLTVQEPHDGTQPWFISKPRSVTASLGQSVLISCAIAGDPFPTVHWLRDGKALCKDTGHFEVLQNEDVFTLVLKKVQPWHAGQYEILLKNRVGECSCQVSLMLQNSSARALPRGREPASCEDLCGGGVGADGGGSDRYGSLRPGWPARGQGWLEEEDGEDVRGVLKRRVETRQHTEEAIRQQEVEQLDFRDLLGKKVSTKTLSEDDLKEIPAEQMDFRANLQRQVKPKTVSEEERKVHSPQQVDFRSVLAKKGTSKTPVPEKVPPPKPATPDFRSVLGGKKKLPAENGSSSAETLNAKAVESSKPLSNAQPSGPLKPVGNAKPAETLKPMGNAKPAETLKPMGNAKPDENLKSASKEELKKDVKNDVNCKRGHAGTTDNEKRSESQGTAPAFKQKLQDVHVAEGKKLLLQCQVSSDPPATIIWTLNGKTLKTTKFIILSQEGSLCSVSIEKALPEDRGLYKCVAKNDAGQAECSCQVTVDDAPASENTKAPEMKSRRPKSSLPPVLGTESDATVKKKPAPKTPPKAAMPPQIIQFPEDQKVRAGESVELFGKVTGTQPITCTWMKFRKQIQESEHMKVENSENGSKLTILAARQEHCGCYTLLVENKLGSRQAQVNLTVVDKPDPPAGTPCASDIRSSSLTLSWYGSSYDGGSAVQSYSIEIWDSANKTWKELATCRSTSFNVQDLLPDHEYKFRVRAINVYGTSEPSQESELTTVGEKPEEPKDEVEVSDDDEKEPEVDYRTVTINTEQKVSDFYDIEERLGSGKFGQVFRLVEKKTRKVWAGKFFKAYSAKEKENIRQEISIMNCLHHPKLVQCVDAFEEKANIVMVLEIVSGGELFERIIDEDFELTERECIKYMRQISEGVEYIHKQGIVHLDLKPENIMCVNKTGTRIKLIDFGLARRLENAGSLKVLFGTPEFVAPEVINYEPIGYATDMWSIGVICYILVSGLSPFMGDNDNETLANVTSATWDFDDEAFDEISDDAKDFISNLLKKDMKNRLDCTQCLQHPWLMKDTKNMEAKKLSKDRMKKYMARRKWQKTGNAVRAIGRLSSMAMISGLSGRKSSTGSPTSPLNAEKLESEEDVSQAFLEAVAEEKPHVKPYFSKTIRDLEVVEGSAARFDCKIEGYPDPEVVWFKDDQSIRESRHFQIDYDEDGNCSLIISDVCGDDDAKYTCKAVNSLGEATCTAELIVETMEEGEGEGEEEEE

Chain of Eukaryotic translation initiation factor 2-alpha kinase 1 (Homo sapiens) (Q9BQI3 whole entry): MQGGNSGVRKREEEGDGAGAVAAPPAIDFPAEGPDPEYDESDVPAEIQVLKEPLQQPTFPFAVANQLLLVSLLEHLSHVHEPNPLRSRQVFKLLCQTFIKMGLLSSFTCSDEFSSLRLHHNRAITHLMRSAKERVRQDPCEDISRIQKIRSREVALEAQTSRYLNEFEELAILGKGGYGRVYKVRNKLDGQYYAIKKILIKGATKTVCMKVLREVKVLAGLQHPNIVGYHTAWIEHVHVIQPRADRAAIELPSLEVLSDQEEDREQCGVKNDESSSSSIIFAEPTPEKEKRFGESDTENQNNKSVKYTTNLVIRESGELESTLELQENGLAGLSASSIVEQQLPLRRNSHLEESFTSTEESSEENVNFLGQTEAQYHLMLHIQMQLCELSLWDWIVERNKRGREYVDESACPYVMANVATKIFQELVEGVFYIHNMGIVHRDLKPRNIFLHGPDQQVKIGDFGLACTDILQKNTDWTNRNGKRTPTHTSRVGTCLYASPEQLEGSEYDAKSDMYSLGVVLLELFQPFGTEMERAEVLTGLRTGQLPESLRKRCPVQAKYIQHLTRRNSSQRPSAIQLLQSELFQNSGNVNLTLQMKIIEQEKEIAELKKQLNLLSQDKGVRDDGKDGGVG
Chain of Cyclin-dependent kinase 14 (Homo sapiens) (O94921 whole entry): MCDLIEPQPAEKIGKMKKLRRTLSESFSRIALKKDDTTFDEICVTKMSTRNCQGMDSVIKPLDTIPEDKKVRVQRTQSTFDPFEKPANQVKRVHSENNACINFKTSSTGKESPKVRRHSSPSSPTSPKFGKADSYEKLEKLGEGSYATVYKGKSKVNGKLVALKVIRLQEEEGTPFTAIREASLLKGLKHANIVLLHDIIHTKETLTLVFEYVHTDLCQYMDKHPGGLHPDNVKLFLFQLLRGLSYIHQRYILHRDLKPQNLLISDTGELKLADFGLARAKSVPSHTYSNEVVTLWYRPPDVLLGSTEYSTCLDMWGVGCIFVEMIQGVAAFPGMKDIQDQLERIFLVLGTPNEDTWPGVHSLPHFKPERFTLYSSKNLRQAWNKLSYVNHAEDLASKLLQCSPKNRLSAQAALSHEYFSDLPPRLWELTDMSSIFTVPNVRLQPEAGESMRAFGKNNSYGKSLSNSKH

SMILES: CNC(=O)Nc1ccc(-c2nc(N3CC4CCC(C3)O4)c3cnn(C4CCC5(CC4)OCCO5)c3n2)cc1
% of control [1]: 72%

SMILES: Cc1cc(F)c(C(=O)Nc2cccc(-c3nncn3C(C)C)n2)cc1-n1cnc(C2CC2)c1
% of control [2]: 58%

SMILES: COCC(=O)NC/C=C/c1ccc2ncnc(Nc3ccc(Oc4ccc(C)nc4)c(C)c3)c2c1 [CP-724714]
% of control [3]: 100%

Kdapp [4]: 1920 nM
SMILES: CC(=O)Nc1cccc(-n2c(=O)n(C3CC3)c(=O)c3c(Nc4ccc(I)cc4F)n(C)c(=O)c(C)c32)c1

SMILES: Nc1cnc(N2CCc3cc(S(=O)(=O)Nc4c(F)cc(Cl)cc4F)cc(N4CCCC4=O)c32)nc1 [TP-020n]
% of control [5]: 94%

SMILES: CCC(=O)N1CCN(c2ccc(-n3c(=O)ccc4cnc5ccc(-c6cnc7ccccc7c6)cc5c43)cc2C(F)(F)F)CC1
% of control [6]: 89%
% of control [7]: 60%
% of control [8]: 100%
% of control [9]: 68%
% of control [10]: 100%
% of control [11]: 100%
% of control [12]: 100%

SMILES: N#Cc1cccc(-c2c[nH]c3ncnc(N4CCOCC4)c23)c1
% of control [13]: 46%
% of control [14]: 93%
